According to patent US8816078B2, “Acidic gas removal by aqueous amine solvents” (Board of Regents, The University of Texas System, priority 2010, dated 2014):

Assays:
[1] = CO2 absorption/desorption rate (liquid film mass transfer coefficient kg′) in the wetted wall column; type: physicochemical
Source text: The CO2 absorption rate of a particular amine may be useful in determining whether an amine is desirable for acidic gas removal. In general, a greater rate of CO2 absorption will allow for the use of less packing, reduced lean loading, or greater rich loading, which in turn can reduce energy consumption. The rate of CO2 absorption can be characterized as the normalized flux, kg′ (gmol/m^2-s-Pa), measured in a model contactor such as a wetted wall column. Similarly, a greater heat of CO2 desorption will reduce the energy requirement of an absorber/stripper relying upon temperature swing regeneration.
(§1) VLE models of CO2 partial pressure were regressed from experimental data to calculate CO2 capacity and enthalpy of CO2 absorption (ΔHabs). […] MPZ and PZ-MPZ both have a slightly higher capacity than PZ. PZ-MPZ absorbs CO2 at a slightly slower rate than 8 m PZ at rich loading, about 50% faster than 7 m MEA. kg′ for MPZ is the same to 7 m MEA. Heat of CO2 absorption for PZ-MPZ (ΔHabs=70 kJ/mol) and MPZ (72 kJ/mol) is close to that for PZ (70 kJ/mol).
In FIG. 5, absorption/desorption rates for PZ-MPZ at 40° C., 60° C., 80° C. and 100° C. are compared with that of 7 m MEA and 8 m PZ at 40° C.
In FIG. 13 and FIG. 14, absorption/desorption rates for 1-MPZ and the PZ blend at 40° C., 60° C., 80° C. and 100° C. are compared with that of 7 m MEA and 8 m PZ at 40° C.

[2] = Cyclic CO2 capacity calculated from the regressed VLE model; type: physicochemical; conditions: for CO2 Capacity: Conc. (m): MDEA/PZ 7/2, PZ 8, MEA 7, HEP 7.7, AEP 6, 2-PE 8, AMP 4.8, EDA 12, DGA 10, PZ-MPZ 4/4, MPZ 8
[3] = Heat of CO2 absorption calculated from the VLE model; type: physicochemical; conditions: for ΔHabs@PCO2 = 1.5 kPa: Conc. (m): MDEA/PZ 7/2, PZ 8, MEA 7, HEP 7.7, AEP 6, 2-PE 8, AMP 4.8, EDA 12, DGA 10, PZ-MPZ 4/4, MPZ 8
Protocol: VLE models of CO2 partial pressure were regressed from experimental data to calculate CO2 capacity and enthalpy of CO2 absorption (ΔHabs).
Heat of absorption was calculated from the model mentioned above by applying the following thermodynamic equation: […]
Heat of absorption was calculated from the model mentioned above by applying the Gibbs-Helmholtz equation: […]
The heat absorption of CO2 at a 1.5 kPa, which is an average CO2 partial pressure for lean and rich solutions, was calculated.

[4] = CO2 solubility (CO2 partial pressure) measured in the wetted wall column; type: physicochemical
Source text: as §1
CO2 solubility for PZ-MPZ and MPZ are shown in FIG. 3 and FIG. 4, respectively. The filled points are experimental data at varied loadings and temperatures. Parameters for the following semi-empirical VLE equation (Equation 3) were regressed and the model was presented as solid curves in the figures. The curves fit the points satisfactorily. ln P=a+b/T+c·α+d·α/T+e·α^2 Eqn. 3
CO2 solubility for 1-MPZ and the PZ blend are shown in FIG. 11 and FIG. 12 respectively. The filled points are experimental data at varied loadings and temperatures. Parameters for the following semi-empirical VLE equation ln P=a+b/T+c·α+d·α/T+e·α^2 (Eqn. 3) were regressed and the model was presented as curves in the figures. α is the CO2 loading defined as nCO2/nalka. The curves fit the points satisfactorily.

[5] = Solubility and solids precipitation limits of amines in water; type: physicochemical
[6] = Solubility measurements of CO2 loaded PZ/1-MPZ/1,4-DMPZ blends; type: physicochemical
Protocol: Solubility measurements for CO2 loaded 3.9 m PZ/3.9 m 1-MPZ/0.2 m 1,4-DMPZ and 3.75 m PZ/3.75 m 1-MPZ/0.5 m 1,4-DMPZ solutions were taken to predict the solubility envelope of these blends. The solubility of the blends at varying loadings and temperatures are shown in FIG. 7 for the 3.9 m PZ/3.9 m 1-MPZ/0.2 m 1,4-DMPZ blend and in FIG. 8 for the 3.75 m PZ/3.75 m 1-MPZ/0.5 m 1,4-DMPZ blend. […] At 0° C., the 8 m blend: 3.75 m PZ/3.75 m 1-MPZ/0.5 m […] was soluble at 2° C. with a lean loading of 0.17 mol CO2/mol alkalinity, in contrast to 8 m PZ, which must be operated at loading above 0.3 to avoid solids precipitation.
A maximum CO2 loading of 0.41 and 0.39 was obtained for the 3.9 m PZ/3.9 m 1-MPZ/0.2 m 1,4-DMPZ blend and the 3.75 m PZ/3.75 m 1-MPZ/0.5 m 1,4 DMPZ blend respectively at room temperature without any solid precipitation. Intermediary loaded solutions were prepared by appropriately mixing the rich loaded and zero loaded solutions and observed at temperatures between 0° C. and the melting point of the solution.

[7] = Thermal degradation in sealed stainless steel cylinders at 150° C., loss of original amine over time; type: physicochemical; conditions: 8 m 1-MPZ, end of the experiment (30 weeks)
Protocol: Samples of each solution were contained in stainless steel, well-sealed cylinders and placed in a forced-convection oven for extended periods of time. The loss of the original amine is tracked over time to determine the rate of thermal degradation.
The thermal degradation of 8 m 1-MPZ at 150° C. was studied. The main degradation products are PZ, 1,4-DMPZ, formyl amides, and formate.
The thermal degradation of a blend of 4 m PZ and 4 m 1-MPZ at 150° C. was previously studied. […] Based on the results of the 8 m 1-MPZ experiment discussed above, 1,4-DMPZ was expected to be produced as a degradation product.
Solutions with varying compositions were placed in thermal cylinders at 150° C. for up to 15 weeks. At this temperature, some degradation will occur, but the conversion between PZ, 1-MPZ, and 1,4-DMPZ should be able to be observed. Three starting solutions were used: 5 m PZ+2 m 1-MPZ+1 m 1,4-DMPZ (5/2/1), 5 m PZ+2.5 m 1-MPZ+0.5 m 1,4-DMPZ (5/2.5/0.5), and 5 m PZ+1.5 m 1-MPZ+[…]. To establish the blend concentrations, it was originally hypothesized that the equilibrium concentration would be 5/2/1. Therefore, that blend, as well as two blends with increased or decreased 1-MPZ concentrations were used and the concentration of 1,4-DMPZ was adjusted to maintain a total concentration of 8 m.

[8] = 298K; cited from earlier work
[9] = ambient temperature; cited from earlier work

CC1CNCCN1 (racemic) [2MPZ, 2-methyl piperazine]
absorption/desorption rate (kg′) compared with PZ and MEA ([1]; 0.5 kPa to 5 kPa P*CO2, comparators 7 m MEA and 8 m PZ at 40° C.): between MEA and PZ
CO2 Capacity [2]: 0.93 mol/kg (water + amine)
Heat of CO2 absorption (ΔHabs) ([3]; 8 m MPZ, 4 m PZ/4 m MPZ blend, 8 m PZ): 17.2 kcal/mol
ΔHabs@PCO2 = 1.5 kPa [3]: 17.2 kcal/mol
solubility over CO2 loading: highly soluble over the full range of CO2 loading
PCO2 ([4]; Temp 40° C., CO2 Loading 0.102 mol/mol alka, 8 m MPZ): 0.01 kPa
PCO2 ([4]; Temp 40° C., CO2 Loading 0.154 mol/mol alka, 8 m MPZ): 0.04 kPa
PCO2 ([4]; Temp 40° C., CO2 Loading 0.203 mol/mol alka, 8 m MPZ): 0.12 kPa
PCO2 ([4]; Temp 40° C., CO2 Loading 0.253 mol/mol alka, 8 m MPZ): 0.32 kPa
PCO2 ([4]; Temp 40° C., CO2 Loading 0.3 mol/mol alka, 8 m MPZ): 0.96 kPa
PCO2 ([4]; Temp 40° C., CO2 Loading 0.365 mol/mol alka, 8 m MPZ): 4.73 kPa
PCO2 ([4]; Temp 60° C., CO2 Loading 0.102 mol/mol alka, 8 m MPZ): 0.09 kPa
PCO2 ([4]; Temp 60° C., CO2 Loading 0.154 mol/mol alka, 8 m MPZ): 0.29 kPa
PCO2 ([4]; Temp 60° C., CO2 Loading 0.203 mol/mol alka, 8 m MPZ): 0.86 kPa
PCO2 ([4]; Temp 60° C., CO2 Loading 0.253 mol/mol alka, 8 m MPZ): 2.26 kPa
PCO2 ([4]; Temp 60° C., CO2 Loading 0.3 mol/mol alka, 8 m MPZ): 4.87 kPa
PCO2 ([4]; Temp 60° C., CO2 Loading 0.365 mol/mol alka, 8 m MPZ): 22.41 kPa
PCO2 ([4]; Temp 80° C., CO2 Loading 0.102 mol/mol alka, 8 m MPZ): 0.59 kPa
PCO2 ([4]; Temp 80° C., CO2 Loading 0.154 mol/mol alka, 8 m MPZ): 1.80 kPa
PCO2 ([4]; Temp 80° C., CO2 Loading 0.203 mol/mol alka, 8 m MPZ): 4.06 kPa
PCO2 ([4]; Temp 80° C., CO2 Loading 0.253 mol/mol alka, 8 m MPZ): 9.72 kPa
PCO2 ([4]; Temp 80° C., CO2 Loading 0.3 mol/mol alka, 8 m MPZ): 22.06 kPa
PCO2 ([4]; Temp 100° C., CO2 Loading 0.102 mol/mol alka, 8 m MPZ): 2.68 kPa
PCO2 ([4]; Temp 100° C., CO2 Loading 0.154 mol/mol alka, 8 m MPZ): 7.39 kPa
PCO2 ([4]; Temp 100° C., CO2 Loading 0.203 mol/mol alka, 8 m MPZ): 18.65 kPa

CC(N)CN (stereo not shown) [1,2-diaminopropane]
solids precipitation ([5]; rich conditions, 8 m): precipitates solids

CN1CCN(C)CC1 [1,4-DMPZ, 1,4-dimethyl-piperazine]
precipitation when mixing only the amine in water [6]: no precipitation

CN1CCNCC1 [1-MPZ, 1-methyl piperazine]
absorption/desorption rate compared with 8 m PZ and 7 m MEA ([1]; 0.5 kPa to 5 kPa CO2 partial pressure, comparators at 40° C.): nearly the same as 8 m PZ and much higher than 7 m MEA
initial carbon not recovered in the form of the listed products [7]: 21%
cyclic CO2 capacity ([2]; difference between lean and rich CO2 loading at 500 Pa and 5,000 Pa CO2 partial pressure): 0.83 mol CO2/kg (water+amine)
heat absorption of CO2 ([3]; at 1.5 kPa CO2 partial pressure): 16 kcal/mol
miscibility with water [5]: fully miscible with water
precipitation when mixing only the amine in water [6]: no precipitation
first pKa [8]: 9.14
second pKa [8]: 4.63
PCO2 ([4]; Temp 40° C., CO2 Loading 0.10 mol/mol alka, 8 m 1-MPZ): 0.10 kPa
PCO2 ([4]; Temp 40° C., CO2 Loading 0.20 mol/mol alka, 8 m 1-MPZ): 1.32 kPa
PCO2 ([4]; Temp 40° C., CO2 Loading 0.26 mol/mol alka, 8 m 1-MPZ): 5.55 kPa
PCO2 ([4]; Temp 40° C., CO2 Loading […] alka, 8 m 1-MPZ): 0.35 kPa
PCO2 ([4]; Temp 60° C., CO2 Loading 0.10 mol/mol alka, 8 m 1-MPZ): 0.62 kPa
PCO2 ([4]; Temp 60° C., CO2 Loading 0.20 mol/mol alka, 8 m 1-MPZ): 6.41 kPa
PCO2 ([4]; Temp 60° C., CO2 Loading 0.26 mol/mol alka, 8 m 1-MPZ): 22.95 kPa
PCO2 ([4]; Temp 60° C., CO2 Loading […] alka, 8 m 1-MPZ): 2.15 kPa
PCO2 ([4]; Temp 80° C., CO2 Loading 0.10 mol/mol alka, 8 m 1-MPZ): 3.66 kPa
PCO2 ([4]; Temp 80° C., CO2 Loading 0.20 mol/mol alka, 8 m 1-MPZ): 25.30 kPa
PCO2 ([4]; Temp 80° C., CO2 Loading […] alka, 8 m 1-MPZ): 10.10 kPa
PCO2 ([4]; Temp 100° C., CO2 Loading 0.10 mol/mol alka, 8 m 1-MPZ): 12.84 kPa
PCO2 ([4]; Temp 100° C., CO2 Loading […] alka, 8 m 1-MPZ): 33.01 kPa

OCCC1CCCCN1 (stereo not shown) [2-PE]
CO2 Capacity [2]: 1.23 mol/kg (water + amine)
ΔHabs@PCO2 = 1.5 kPa [3]: 17.4 kcal/mol

NCCN1CCNCC1 [AEP]
CO2 Capacity [2]: 0.66 mol/kg (water + amine)
ΔHabs@PCO2 = 1.5 kPa [3]: 17.2 kcal/mol

CC(C)(N)CO [AMP]
CO2 Capacity [2]: 0.96 mol/kg (water + amine)
ΔHabs@PCO2 = 1.5 kPa [3]: 17.4 kcal/mol

NCCOCCO [DGA ®]
CO2 Capacity [2]: 0.38 mol/kg (water + amine)
ΔHabs@PCO2 = 1.5 kPa [3]: 19.4 kcal/mol

OCCN1CCNCC1 [HEP]
CO2 Capacity [2]: 0.68 mol/kg (water + amine)
ΔHabs@PCO2 = 1.5 kPa [3]: 16.5 kcal/mol

NCCO [MEA, monoethanolamine]
CO2 Capacity [2]: 0.47 mol/kg (water + amine)
ΔHabs@PCO2 = 1.5 kPa [3]: 19.6 kcal/mol

C1CNCCN1.O.O.O.O.O.O [piperazine hexahydrate]
solubility in water [9]: about 2 moles/kg H2O
